Measured values from patent US9409907B2, “Inhibitor compounds” (Cancer Research Technology Limited, priority 2012, dated 2016).

Molecular target: full length MPS1 (Homo sapiens (Human), UniProt P33981)
Test: Measurement of inhibition of MPS1 kinase (Caliper EZ reader mobility-shift enzyme assay)
Assay type: biochemical
Conditions: full length MPS1 12.5 nM or 3 nM, H236 peptide 5 μM, ATP 10 μM, 60 min at room temperature
Experimental: Measurement of Inhibition of MPS1 Kinase
The reaction was carried out for 60 min at room temperature and stopped by the addition of buffer (10 μl) containing 20 mM EDTA, 0.05% (v/v) Brij-35, in 0.1M HEPES-buffered saline (Free acid, Sigma, UK). The plate was read on a Caliper EZ reader II (Caliper Life Sciences).
The % inhibition of the compounds is calculated relative to the means of selected control wells.

Chain of full length MPS1 (P33981 whole entry): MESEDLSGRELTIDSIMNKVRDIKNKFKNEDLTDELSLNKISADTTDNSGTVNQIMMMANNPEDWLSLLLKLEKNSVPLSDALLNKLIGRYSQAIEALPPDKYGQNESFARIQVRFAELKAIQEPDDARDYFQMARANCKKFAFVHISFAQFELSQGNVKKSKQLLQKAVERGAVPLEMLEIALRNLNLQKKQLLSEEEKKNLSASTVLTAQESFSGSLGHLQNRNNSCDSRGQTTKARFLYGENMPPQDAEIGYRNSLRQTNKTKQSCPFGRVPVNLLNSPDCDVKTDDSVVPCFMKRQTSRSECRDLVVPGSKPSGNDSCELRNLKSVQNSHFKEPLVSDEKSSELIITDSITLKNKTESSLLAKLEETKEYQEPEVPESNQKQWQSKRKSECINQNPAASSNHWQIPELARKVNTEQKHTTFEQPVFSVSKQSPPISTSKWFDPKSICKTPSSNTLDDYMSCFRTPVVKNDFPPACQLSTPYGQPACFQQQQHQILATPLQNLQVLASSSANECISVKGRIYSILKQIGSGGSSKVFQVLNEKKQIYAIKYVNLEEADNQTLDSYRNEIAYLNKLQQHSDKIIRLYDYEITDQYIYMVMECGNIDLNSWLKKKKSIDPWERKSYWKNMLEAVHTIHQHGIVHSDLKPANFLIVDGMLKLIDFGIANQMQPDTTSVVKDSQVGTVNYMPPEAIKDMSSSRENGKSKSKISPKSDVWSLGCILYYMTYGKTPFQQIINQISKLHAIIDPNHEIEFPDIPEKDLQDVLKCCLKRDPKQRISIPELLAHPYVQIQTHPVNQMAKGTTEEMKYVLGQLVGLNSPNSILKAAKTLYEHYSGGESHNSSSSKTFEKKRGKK

SMILES | IC50 [nM]
COc1cc(-c2cnn(C)c2)ccc1Nc1ncc2ccnc(NCC3(C)CCOC3)c2n1 (racemic) [Example 117, N^2-(2-methoxy-4-(1-methyl-1H-pyrazol-4-yl)phenyl)-N^8-((3-methyltetrahydrofuran-3-yl)methyl)pyrido[3,4-d]pyrimidine-2,8-diamine] | 3
COc1cc(-c2cnn(C)c2)ccc1Nc1ncc2ccnc(NC(C)C3CCOC3)c2n1 (racemic) [Example 125, Racemic N^2-(2-methoxy-4-(1-methyl-1H-pyrazol-4-yl)phenyl)-N^8-(1-(tetrahydrofuran-3-yl)ethyl)pyrido[3,4-d]pyrimidine-2,8-diamine] | 3
COc1cc(-c2cnn(C)c2)ccc1Nc1ncc2ccnc(NC(C)CO)c2n1 (racemic) [Example 129, Racemic 2-(2-(2-Methoxy-4-(1-methyl-1H-pyrazol-4-yl)phenylamino)pyrido[3,4-d]pyrimidin-8-ylamino)propan-1-ol] | 7
COc1cc(-c2cnn(C)c2)ccc1Nc1ncc2ccnc(N[S+]([O-])C(C)(C)C)c2n1 (racemic) [Example 143, (±)-N-(2-(2-methoxy-4-(1-methyl-1H-pyrazol-4-yl)phenylamino)pyrido[3,4-d]pyrimidin-8-yl)-2-methylpropane-2-sulfinamide] | 5
COc1cc(C(=O)N2CC(OC)C2)ccc1Nc1cc2c(-c3cnn(CCN(C)C)c3)cccc2cn1 [Example 1, (4-((5-(1-(2-(Dimethylamino)ethyl)-1H-pyrazol-4-yl)isoquinolin-3-yl)amino)-3-methoxyphenyl)(3-methoxyazetidin-1-yl)methanone] | 61
COCCn1cc(-c2cccc3cnc(Nc4ccc(C(=O)N5CC(OC)C5)cc4OC)cc23)cn1 [Example 2, (3-methoxy-4-((5-(1-(2-methoxyethyl)-1H-pyrazol-4-yl)isoquinolin-3-yl)amino)phenyl)(3-methoxyazetidin-1-yl)methanone] | 14
COc1cc(C(=O)N2CC(OC)C2)ccc1Nc1cc2c(-c3cnn(C4CCN(C(=O)OC(C)(C)C)CC4)c3)cccc2cn1 [Example 3, tert-butyl 4-(4-(3-((2-methoxy-4-(3-methoxyazetidine-1-carbonyl)phenyl)-amino)isoquinolin-5-yl)-1H-pyrazol-1-yl)piperidine-1-carboxylate] | 125
COc1cc(C(=O)N2CC(OC)C2)ccc1Nc1cc2c(-c3cncn3C)cccc2cn1 [Example 4, (3-methoxy-4-((5-(1-methyl-1H-imidazol-5-yl)isoquinolin-3-yl)amino)phenyl)(3-methoxyazetidin-1-yl)methanone] | 112
COc1cc(C(=O)N2CC(OC)C2)ccc1Nc1cc2c(-c3c(C)noc3C)cccc2cn1 [Example 5, (4-((5-(3,5-dimethylisoxazol-4-yl)isoquinolin-3-yl)amino)-3-methoxyphenyl)(3-methoxyazetidin-1-yl)methanone] | 261
CN1CCC(NC(=O)c2ccc(Nc3cc4c(-c5cnn(C)c5)cccc4cn3)c(OC(F)(F)F)c2)CC1 [Example 6, 4-((5-(1-methyl-1H-pyrazol-4-yl)isoquinolin-3-yl)amino)-N-(1-methylpiperidin-4-yl)-3-(trifluoromethoxy)benzamide] | 293
COc1cc(C(=O)N2CC(OC)C2)ccc1Nc1cc2c(-c3cnn(C(C)C)c3)cccc2cn1 [Example 7, (4-((5-(1-isopropyl-1H-pyrazol-4-yl)isoquinolin-3-yl)amino)-3-methoxyphenyl)(3-methoxyazetidin-1-yl)methanone] | 11
COc1cc(C(=O)N2CC(OC)C2)ccc1Nc1cc2c(-c3cn(C)nc3C)cccc2cn1 [Example 8, (4-((5-(1,3-dimethyl-1H-pyrazol-4-yl)isoquinolin-3-yl)amino)-3-methoxyphenyl)(3-methoxyazetidin-1-yl)methanone] | 27
COc1cc(C(=O)N2CC(OC)C2)ccc1Nc1cc2c(-c3ccnn3C)cccc2cn1 [Example 9, (3-methoxy-4-((5-(1-methyl-1H-pyrazol-5-yl)isoquinolin-3-yl)amino)phenyl)(3-methoxyazetidin-1-yl)methanone] | 22
COc1cc(-c2cnc(C)n2C)ccc1Nc1cc2c(-c3cnn(C)c3)cccc2cn1 [Example 10, N-(4-(1,2-dimethyl-1H-imidazol-5-yl)-2-methoxyphenyl)-5-(1-methyl-1H-pyrazol-4-yl)isoquinolin-3-amine] | 6
Cc1ncc(-c2ccc(Nc3cc4c(-c5cnn(C)c5)cccc4cn3)c(Cl)c2)n1C [Example 11, N-(2-chloro-4-(1,2-dimethyl-1H-imidazol-5-yl)phenyl)-5-(1-methyl-1H-pyrazol-4-yl)isoquinolin-3-amine] | 6
COc1cc(C(=O)N2CC(OC)C2)ccc1Nc1cc2c(-c3ccn(C)n3)cccc2cn1 [Example 12, (3-methoxy-4-((5-(1-methyl-1H-pyrazol-3-yl)isoquinolin-3-yl)amino)phenyl)(3-methoxyazetidin-1-yl)methanone] | 26
COc1cc(C(=O)N2CC(OC)C2)ccc1Nc1cc2c(-c3cnn(C)c3C)cccc2cn1 [Example 13, (4-((5-(1,5-dimethyl-1H-pyrazol-4-yl)isoquinolin-3-yl)amino)-3-methoxyphenyl)(3-methoxyazetidin-1-yl)methanone] | 12
COc1cc(-c2cncn2C)ccc1Nc1cc2c(-c3cnn(C)c3)cccc2cn1 [Example 14, N-(2-methoxy-4-(1-methyl-1H-imidazol-5-yl)phenyl)-5-(1-methyl-1H-pyrazol-4-yl)isoquinolin-3-amine] | 7
COc1cc(C(=O)N2CC(OC)C2)ccc1Nc1cc2c(-c3cncnc3)cccc2cn1 [Example 15, (3-methoxy-4-((5-(pyrimidin-5-yl)isoquinolin-3-yl)amino)phenyl)(3-methoxyazetidin-1-yl)methanone] | 98

SMILES | IC50 [nM]
COc1cc(-c2cnn(C)c2)ccc1Nc1cc2c(-c3cnn(C)c3)cccc2cn1 [Example 16, N-(2-methoxy-4-(1-methyl-1H-pyrazol-4-yl)phenyl)-5-(1-methyl-1H-pyrazol-4-yl)isoquinolin-3-amine] | 71
Cn1cc(-c2cccc3cnc(Nc4ccc(-c5cncn5C)cc4Cl)cc23)cn1 [Example 17, N-(2-chloro-4-(1-methyl-1H-imidazol-5-yl)phenyl)-5-(1-methyl-1H-pyrazol-4-yl)isoquinolin-3-amine] | 51
COc1cc(-c2c(C)noc2C)ccc1Nc1cc2c(-c3cnn(C)c3)cccc2cn1 [Example 18, N-(4-(3,5-dimethylisoxazol-4-yl)-2-methoxyphenyl)-5-(1-methyl-1H-pyrazol-4-yl)isoquinolin-3-amine] | 95
COc1cc(C(=O)N2CC(OC)C2)ccc1Nc1cc2c(-c3cnn(C4CCN(C)CC4)c3)cccc2cn1 [Example 19, (3-Methoxy-4-((5-(1-(1-methylpiperidin-4-yl)-1H-pyrazol-4-yl)isoquinolin-3-yl)amino)phenyl)(3-methoxyazetidin-1-yl)methanone] | 31
COc1cc(C(=O)N2CC(OC)C2)ccc1Nc1cc2c(-c3cnn(C4CCNCC4)c3)cccc2cn1 [Example 20, (3-Methoxy-4-((5-(1-(piperidin-4-yl)-1H-pyrazol-4-yl)isoquinolin-3-yl)amino)phenyl)(3-methoxyazetidin-1-yl)methanone] | 20
COc1cc(C(=O)N2CC(OC)C2)ccc1Nc1cc2c(-c3cccnc3)cccc2cn1 [Example 21, (3-Methoxy-4-((5-(pyridin-3-yl)isoquinolin-3-yl)amino)phenyl)(3-methoxyazetidin-1-yl)methanone] | 30
COC1CN(C(=O)c2ccc(Nc3cc4c(-c5cnn(C)c5)cccc4cn3)c(Cl)c2)C1 [Example 22] | 100
Cn1cc(-c2ccc(Nc3cc4c(-c5cnn(C)c5)cccc4cn3)c(Cl)c2)cn1 [Example 23] | 225
COc1cc(C(=O)N2CC(OC)C2)ccc1Nc1cc2c(-c3cnn(C)c3)cccc2cn1 [Example 24] | 20
COc1cc(C(=O)N(C)C)ccc1Nc1cc2c(-c3cnn(C)c3)cccc2cn1 [Example 25] | 28
CN(C)C(=O)c1ccc(Nc2cc3c(-c4cnn(C)c4)cccc3cn2)c(Cl)c1 [Example 26] | 78
COc1cc(OC2CCN(C)CC2)ccc1Nc1cc2c(-c3cnn(C)c3)cccc2cn1 [Example 29, N-(2-Methoxy-4-((1-methylpiperidin-4-yl)oxy)phenyl)-5-(1-methyl-1H-pyrazol-4-yl)isoquinolin-3-amine] | 17
COc1cc(-c2cnn(C)c2)c(C)cc1Nc1ncc2ccnc(-c3cnn(C)c3)c2n1 [Example 36] | 100
COc1cc(-c2cnn(C)c2)ccc1Nc1ncc2ccnc(NC3CCCC3)c2n1 [Example 39] | 7
COc1cc(-c2cnc(C)n2C)ccc1Nc1ncc2ccnc(-c3cnn(C)c3)c2n1 [Example 40, N-(4-(1,2-dimethyl-1H-imidazol-5-yl)-2-methoxyphenyl)-8-(1-methyl-1H-pyrazol-4-yl)pyrido[3,4-d]pyrimidin-2-amine] | 4
COc1cc(-c2cnn(CCN3CCN(C)CC3)c2)ccc1Nc1ncc2ccnc(NC3CCCCC3)c2n1 [Example 41, N^8-cyclohexyl-N2-(2-methoxy-4-(1-(2-(4-methylpiperazin-1-yl)ethyl)-1H-pyrazol-4-yl)phenyl)pyrido[3,4-d]pyrimidine-2,8-diamine] | 3
COc1cc(-c2cnn(CCO)c2)ccc1Nc1ncc2ccnc(NC3CCCCC3)c2n1 [Example 43, 2-(4-(4-((8-(cyclohexylamino)pyrido[3,4-d]pyrimidin-2-yl)amino)-3-methoxyphenyl)-1H-pyrazol-1-yl)ethanol] | 14
COc1cc(-c2cnn(CCO)c2)ccc1Nc1ncc2ccnc(NC3CCOCC3)c2n1 [Example 44, 2-(4-(3-methoxy-4-((8-((tetrahydro-2H-pyran-4-yl)amino)pyrido[3,4-d]pyrimidin-2-yl)amino)phenyl)-1H-pyrazol-1-yl)ethanol] | 3
